Results published in PubChem BioAssay AID1259408 (Genetic Toxicology Data Bank (GENE-TOX), 2018).
Activity calls are given as the source filed them. How the calls were made is not given here.

Test system: GENE-TOX genotoxicity assays, various organisms and cells
Assay: GENE-TOX mutagenicity studies
Conditions: for call: Assay Type: In vivo carcinogenicity studies
[1] = Species/Cell Type: Fischer rat embryo (RLV/1706) cells, Assay Type: Cell transformation, viral enhanced, Assay Code: CTR+, Evaluation Type: Evaluation A (Pre-1980)
[2] = Species/Cell Type: Escherichia coli polA (W3119 vs P3478), Assay Type: Rec-assay, DNA effects (bacterial DNA repair), Assay Code: RE1T, Evaluation Type: Evaluation A (Pre-1980)
[3] = Species/Cell Type: Salmonella typhimurium (one or more of the five standard strains: TA98, TA100, TA1535, TA1537, and TA1538), Assay Type: Histidine reverse gene mutation, Ames assay, Assay Code: SAL+, Evaluation Type: Evaluation A (Pre-1980)
[4] = Species/Cell Type: Salmonella typhimurium (one or more of the five standard strains: TA98, TA100, TA1535, TA1537, and TA1538), Assay Type: Histidine reverse gene mutation, Ames assay, Assay Code: SALT, Evaluation Type: Evaluation A (Pre-1980)
[5] = Species/Cell Type: Human lymphocytes, Assay Type: Sister-chromatid exchange (SCE) in vitro, Assay Code: SCLT, Evaluation Type: Evaluation B (Post-1980)
[6] = Species/Cell Type: Human, Assay Type: Sister-chromatid exchange (SCE) in vitro, Assay Code: SC1T, Evaluation Type: Evaluation B (Post-1980)
[7] = Species/Cell Type: Allium cepa, Assay Type: Chromosome aberrations, Assay Code: ALC-, Evaluation Type: Evaluation A (Pre-1980)
[8] = Species/Cell Type: Mouse, Sex: Male, Assay Type: Sperm morphology, Assay Code: SPI-, Evaluation Type: Evaluation A (Pre-1980)
[9] = Species/Cell Type: Nonhuman, Assay Type: Sister-chromatid exchange (SCE) in vitro, Assay Code: SC2+, Evaluation Type: Evaluation B (Post-1980)
[10] = Species/Cell Type: Salmonella typhimurium (one or more of the five standard strains: TA98, TA100, TA1535, TA1537, and TA1538), Assay Type: Histidine reverse gene mutation, Ames assay, Assay Code: SAL-, Evaluation Type: Evaluation A (Pre-1980)
[11] = Species/Cell Type: Syrian hamster embryo (SA7/SHE) cells, Assay Type: Cell transformation, viral enhanced, Assay Code: CT7-, Evaluation Type: Evaluation A (Pre-1980)
[12] = Species/Cell Type: Fischer rat embryo (RLV/1706) cells, Assay Type: Cell transformation, viral enhanced, Assay Code: CTR-, Evaluation Type: Evaluation A (Pre-1980)
[13] = Species/Cell Type: Mammalian polychromatic erythrocytes, Assay Type: Micronucleus test, chromosome aberrations, Assay Code: MNTT, Evaluation Type: Evaluation B (Post-1980)

## Nc1nc(/C=C/c2ccc([N+](=O)[O-])o2)no1
[1]
  mutagenic call: active; positive
Species/Cell Type: Neurospora crassa, Assay Type: Forward gene mutation, Assay Code: NEF+, Evaluation Type: Evaluation A (Pre-1980)
  mutagenic call: active; positive
Species/Cell Type: Neurospora crassa, Assay Type: Reverse gene mutation, Assay Code: NER+, Evaluation Type: Evaluation A (Pre-1980)
  mutagenic call: active; positive
Species/Cell Type: Saccharomyces cerevisiae, Assay Type: Mitotic recombination or gene conversion, Assay Code: YEC+, Evaluation Type: Evaluation A (Pre-1980)
  mutagenic call: active; positive
Species/Cell Type: Saccharomyces cerevisiae, Assay Type: Mitotic recombination or gene conversion, Assay Code: YEH+, Evaluation Type: Evaluation A (Pre-1980)
  mutagenic call: active; positive
Species/Cell Type: Saccharomyces cerevisiae, Assay Type: Reverse gene mutation, Assay Code: YER+, Evaluation Type: Evaluation A (Pre-1980)
  mutagenic call: active; positive

## CCCCI
[2]
  mutagenic call: no conclusion

## COc1cc(NNc2ccccc2)ccc1N=O
[3]
  mutagenic call: active; positive

## C/C(O)=C1/C(=O)[C@@H]2[C@H]3c4c[nH]c5cccc(c45)C[C@H]3C(C)(C)N2C1=O
[4]
  mutagenic call: no conclusion

## NC1CCSC1=O (centres undefined)
[5]
  mutagenic call: no conclusion
[6]
  mutagenic call: no conclusion

## CNC(=O)Oc1cccc(C)c1
Species/Cell Type: Bacillus subtilis (H17 vs M45T), Assay Type: Rec-assay, spot test, DNA effects (bacterial DNA repair), Assay Code: REX-, Evaluation Type: Evaluation A (Pre-1980)
  mutagenic call: inactive; negative
Species/Cell Type: Escherichia coli WP2, Assay Type: Tryptophan reverse gene mutation, Assay Code: WP2-, Evaluation Type: Evaluation A (Pre-1980)
  mutagenic call: inactive; negative

## Cc1cc2c(c3ccc4ccccc4c13)CCCC2C (centres undefined)
[4]
  mutagenic call: no conclusion

## O=C1CCc2c1c(=O)oc1c3c(cc(O)c21)O[C@H]1OC=C[C@@H]31
[4]
  mutagenic call: no conclusion

## Nc1nc(-c2ccc([N+](=O)[O-])o2)cs1
Species/Cell Type: Escherichia coli WP2, Assay Type: Tryptophan reverse gene mutation, Assay Code: WP2+, Evaluation Type: Evaluation A (Pre-1980)
  mutagenic call: active; positive
Species/Cell Type: Escherichia coli WP2 UVRA, Assay Type: Tryptophan reverse gene mutation, Assay Code: WPU-, Evaluation Type: Evaluation A (Pre-1980)
  mutagenic call: inactive; negative
Species/Cell Type: Nonhuman, Assay Type: Sister-chromatid exchange (SCE) in vitro, Assay Code: SC2+D, Dose Response: With dose response, Evaluation Type: Evaluation B (Post-1980)
  mutagenic call: active; positive
[3]
  mutagenic call: active; positive

## O=NN1CCCC(Cl)C1 (centres undefined)
Species/Cell Type: Drosophila melanogaster, Assay Type: Sex-linked recessive lethal gene mutation, Assay Code: SRL+, Evaluation Type: Evaluation A (Pre-1980)
  mutagenic call: active; positive
Species/Cell Type: Salmonella typhimurium (one or more of the five standard strains: TA98, TA100, TA1535, TA1537, and TA1538), Assay Type: Histidine reverse gene mutation, Ames assay, Assay Code: SAL+*, Activation: With metabolic activation, Evaluation Type: Evaluation A (Pre-1980)
  mutagenic call: active; positive

## Cc1ccc2cc3ccc4c(F)cccc4c3cc2c1
Species/Cell Type: Mouse prostate cells, Assay Type: Cell transformation, Assay Code: CTM+, Evaluation Type: Evaluation A (Pre-1980)
  mutagenic call: active; positive

## [N-]=[N+]=CC(=O)CCCCC(=O)C=[N+]=[N-]
[7]
  mutagenic call: inactive; negative
Species/Cell Type: Aspergillus nidulans, Assay Type: Reverse gene mutation, Assay Code: ASRT, Evaluation Type: Evaluation A (Pre-1980)
  mutagenic call: no conclusion
Species/Cell Type: Hordeum vulgare (barley), Assay Type: Gene mutation, Assay Code: HOM+, Evaluation Type: Evaluation A (Pre-1980)
  mutagenic call: active; positive

## O=C(NO)c1cc2ccccc2[nH]1
[3]
  mutagenic call: active; positive

## NC(N)=S
[7]
  mutagenic call: inactive; negative
Species/Cell Type: Escherichia coli polA (W3110 vs P3478), Assay Type: Rec-assay, DNA effects (bacterial DNA repair), Assay Code: RE2-, Evaluation Type: Evaluation A (Pre-1980)
  mutagenic call: inactive; negative
[2]
  mutagenic call: no conclusion
[1]
  mutagenic call: active; positive
Species/Cell Type: Fischer rat embryo (SA7/RE) cells, Assay Type: Cell transformation, viral enhanced, Assay Code: CTA+, Evaluation Type: Evaluation A (Pre-1980)
  mutagenic call: active; positive
[8]
  mutagenic call: inactive; negative
Species/Cell Type: Nonhuman, Assay Code: CCG+, Evaluation Type: Evaluation A (Pre-1980)
  call: active; positive
[9]
  mutagenic call: active; positive
Species/Cell Type: Saccharomyces cerevisiae, Assay Type: Mitotic recombination or gene conversion, Assay Code: YEH-, Evaluation Type: Evaluation A (Pre-1980)
  mutagenic call: inactive; negative
[10]
  mutagenic call: inactive; negative
Species/Cell Type: Salmonella typhimurium, Assay Type: Forward and reverse gene mutation, host-mediated assay, Assay Code: HMA+, Evaluation Type: Evaluation A (Pre-1980)
  mutagenic call: active; positive
[11]
  mutagenic call: inactive; negative
Species/Cell Type: Syrian hamster embryo (SHE) cells, Assay Type: Cell transformation, clonal assay, Assay Code: CTC+, Evaluation Type: Evaluation A (Pre-1980)
  mutagenic call: active; positive

## O=c1ccc2ccccc2[nH]1
[10]
  mutagenic call: inactive; negative

## Cc1ccc([N+](=O)[O-])c(O)c1
Species/Cell Type: Allium cepa, Assay Type: Chromosome aberrations, Assay Code: ALC+, Evaluation Type: Evaluation A (Pre-1980)
  mutagenic call: active; positive

## O.O.O.O.O.O.O.O.O.O=[N+]([O-])[O-].O=[N+]([O-])[O-].O=[N+]([O-])[O-].[Cr+3]
[9]
  mutagenic call: active; positive

## CCOC(=O)N(CCO)N=O
[3]
  mutagenic call: active; positive

## COc1cccc2c1C(=O)c1c(O)c3c(c(O)c1C2=O)C[C@@](O)(C(C)=O)C[C@@H]3O[C@@H]1C[C@@H](N(C)C)[C@@H](O)[C@@H](C)O1
[4]
  mutagenic call: no conclusion

## O=C(O)C1=NN(c2ccc(S(=O)(=O)O)cc2)C(=O)C1N=Nc1ccc(S(=O)(=O)O)cc1 (centres undefined)
Species/Cell Type: Bacillus subtilis (H17 vs M45T), Assay Type: Rec-assay, spot test, DNA effects (bacterial DNA repair), Assay Code: REXT, Evaluation Type: Evaluation A (Pre-1980)
  mutagenic call: no conclusion
[12]
  mutagenic call: inactive; negative
[13]
  mutagenic call: no conclusion
Species/Cell Type: Saccharomyces cerevisiae, Assay Type: Mitotic recombination or gene conversion, Assay Code: YEC-, Evaluation Type: Evaluation A (Pre-1980)
  mutagenic call: inactive; negative
[10]
  mutagenic call: inactive; negative

## [Li+]
Species/Cell Type: Bacillus subtilis (H17 vs M45), Assay Type: Rec-assay, spot test, DNA effects (bacterial DNA repair), Assay Code: REW-, Evaluation Type: Evaluation A (Pre-1980)
  mutagenic call: inactive; negative
[11]
  mutagenic call: inactive; negative

## CC(=O)N(O)c1ccc(-c2ccccc2)cc1
Species/Cell Type: Human diploid fibroblasts, Assay Type: Unscheduled DNA synthesis (UDS) in vitro, DNA effects, Assay Code: UDH+, Evaluation Type: Evaluation A (Pre-1980)
  mutagenic call: active; positive
[9]
  mutagenic call: active; positive

## Oc1c(Cl)cccc1Cl
[7]
  mutagenic call: inactive; negative

## O=c1ccn([C@H]2C[C@H](O)[C@@H](CO)O2)c(=O)[nH]1
Species/Cell Type: Drosophila melanogaster, Assay Type: Sex-linked recessive lethal gene mutation, Assay Code: SRLT, Evaluation Type: Evaluation A (Pre-1980)
  mutagenic call: no conclusion

## Cc1c2c(c(C)c3c1ccc1ccccc13)[C@H](O)[C@@H](O)C=C2
Species/Cell Type: Nonhuman, Assay Code: CCGT, Evaluation Type: Evaluation A (Pre-1980)
  call: no conclusion

## O=C1c2c(O)cccc2Cc2cccc(O)c21
Species/Cell Type: Mammalian polychromatic erythrocytes, Assay Type: Micronucleus test, chromosome aberrations, Assay Code: MNT-, Evaluation Type: Evaluation B (Post-1980)
  mutagenic call: inactive; negative
Species/Cell Type: Saccharomyces cerevisiae, Assay Type: Mitotic recombination or gene conversion, Assay Code: YECT, Evaluation Type: Evaluation A (Pre-1980)
  mutagenic call: no conclusion

## CCOC(=O)/C=C(C)/C=C/C=C(C)/C=C/c1c(C)cc(OC)c(C)c1C
Species/Cell Type: Human, Assay Type: Sister-chromatid exchange (SCE) in vitro, Assay Code: SC1+D, Dose Response: With dose response, Evaluation Type: Evaluation A (Pre-1980)
  mutagenic call: active; positive
[13]
  mutagenic call: no conclusion
Species/Cell Type: Nonhuman, Assay Type: Sister-chromatid exchange (SCE) in vitro, Assay Code: SC2T, Evaluation Type: Evaluation B (Post-1980)
  mutagenic call: no conclusion

## C=C(C)[C@@H]1CCC(C)=C[C@H]1c1c(O)cc(CCCCC)cc1O
[12]
  mutagenic call: inactive; negative
Species/Cell Type: Human lymphocytes, Assay Type: Sister-chromatid exchange (SCE) in vivo, Assay Code: SCY+, Evaluation Type: Evaluation B (Post-1980)
  mutagenic call: active; positive
Species/Cell Type: Mammalian polychromatic erythrocytes, Assay Type: Micronucleus test, chromosome aberrations, Assay Code: MNT+, Evaluation Type: Evaluation B (Post-1980)
  mutagenic call: active; positive
[8]
  mutagenic call: inactive; negative

## N=C(N)SCCN
Species/Cell Type: Human lymphocytes, Assay Type: Sister-chromatid exchange (SCE) in vitro, Assay Code: SCL+, Evaluation Type: Evaluation B (Post-1980)
  mutagenic call: active; positive
[5]
  mutagenic call: no conclusion
Species/Cell Type: Human, Assay Type: Sister-chromatid exchange (SCE) in vitro, Assay Code: SC1+, Evaluation Type: Evaluation B (Post-1980)
  mutagenic call: active; positive
[6]
  mutagenic call: no conclusion
